Measured values taken from US20120148695A1, “Pharmaceutical Compositions From Carapa Guianensis” (priority 2004, published 2012).
Entries after “also recorded” stand apart in the source; their conditions may differ.

Assays:
[1] = test system: edema of paw induced by PAF; assay: edema of paw induced by platelet activation factor (PAF); assay type: in vivo, Swiss mice; settings: WEB 2170 16 mg/Kg oral; PAF 1 μg/paw
Description: Swiss mice were stimulated through intraplant injection of 1 μg/paw of platelet activation factor (PAF) in one of the rear paws at the volume of 50 μL/paw. In the counter-lateral paw the same volume of vehicle injected (sterile saline free of pyrogens). The stimulus was performed in non-treated animals and animals pre-treated with 16 mg/Kg of antagonist to PAF WEB 2170 (p.o., 100 μL). Thirty minutes after the stimulus, the edema was analyzed by the digital plethysmograph, through the displacement of fluid (0.5 g NaCl; 3 mL Extran 100%/1 L) produced by insertion of each paw in the measurement tray. Each analysis was performed 3 times.

[2] = test system: pleurisis induced by carrageenin; assay: pleurisis induced by carrageenin; assay type: in vivo, Swiss mice; settings: diclophenac 100 mg/Kg p.o.; 4 h
Description: Pleurisis was induced through intra-thoracic injection (i.t) of carrageenin (300 μg/cavity) at the final volume of 100 μL (Henriques and col., 1991). The control group received 100 μL of vehicle (sterile saline). Four hours after the stimulus, the animals were sacrificed in of CO2 chamber, their thoracic pleural were exposed and washed with phosphate tampon (PBS) heparinized (20 UI/mL). The pleural cavity of the animals was washed with the help of an automatic pipette, at the volume of 1 mL. The pleural wash was collected and centrifuged (740 g, 10 minutes) to remove cells for posterior evaluation of the proteic exudation, as described as follows. Mice were previously injected intravenously at their orbital plexus with Evans blue 1% (25 mg/Kg), and a proteic exudation was evaluated through of overflowing of Evans blue, through spectrophotometer at λ 600 nm. The concentration of Evans blue was determined comparing the optical density (D.O.) of washes with a pattern curve of Evans blue (of 25.6 a 0.2 μg/mL). Results were expressed as μg/mL of Evans blue. The count of the number of total leucocytes in the pleural wash was made with the help of a Neubauer chamber as of a quota removed from the pleural wash, diluted 40 times in Turk liquid for the lise of erythrocytes. […] Results are expressed as number of cells (×10^6) by cavity.

[3] = test system: edema of paw induced by zimosan; assay: edema of paw induced by zimosan; assay type: in vivo, Swiss mice; settings: diclophenac 100 mg/Kg oral; zimosan 500 μg/paw
Description: (§1) The animals were stimulated through intraplant injection of stimulus (zimosan or carrageenin) in one of rear paws with the volume of 50 μL/paw. Doses used were: 500 μg/paw of zimosan and 300 μg/paw of carrageenin. In the counter-lateral the same volume of vehicle was injected (sterile saline free of pyrogens). Four hours after the stimulus, the edema was analyzed at the digital plethysmograph, through of displacement of fluid (0.5 g NaCl; 3 mL Extran 100%/1 L) produced by insertion of each paw in the measurement tray. Each Analysis was performed 3 times.

[4] = test system: edema of paw induced by carrageenin; assay: edema of paw induced by carrageenin; assay type: in vivo, Swiss mice; settings: diclophenac 100 mg/Kg oral; carrageenin 300 μg/paw
Description: as §1

[5] = test system: hyperalgesia induced by carrageenin; assay: hyperalgesia induced by carrageenin (hot plate); assay type: in vivo, Wistar rats; settings: dipyrone 100 mg/Kg p.o.
Description: (§2) The […] activity was evaluated through an essay of hyperalgesia, performed in a heated plate (Hot Plate, Ugo Basile-Italia model DS-37), with male Wistar rats. The essay is performed through placement of the animals on the hot plate, limited by an acrylic dome of approximately 18 cm in diameter by 40 cm in height.
The induction of hyperalgesic state was performed through the intraplant injection of 800 μg/paw of carrageenin in Wistar rats in one of the rear paws, at the final volume of 100 μL/paw. In the counter-lateral paw the same volume of vehicle (sterile saline free of pyrogens) was injected. The stimulus was performed in animals non-treated and in animals pre-treated with dipyrone (100 mg/Kg, p.o.). Three hours after the stimulus, the animals were placed in a hot plate at 52.5±0.5° C., and two chronometers are set to record the latency of response of withdrawal of each rear paw. Results were expressed in terms of variation of latency of withdrawal of left and right side paws, measured in seconds.

[6] = test system: edema of paw induced by egg albumin in sensitized mice; assay: allergic edema of paw induced by egg albumin, oral pre-treatment; assay type: in vivo, Swiss mice; settings: promethazine 30 mg/Kg oral, 1 h before, egg albumin 3 μg/paw
Description: This essay was made in animals previously sensitized through an subcutaneous injection (s.c.) in the dorsal region with 200 μL of a suspension containing 50 μg of egg albumin+5 mg (Al(OH)3) diluted in sterile saline free or pyrogens (200 μL/animal). The edema of paw was induced by an intraplant paw injection of egg albumin (3 μg/paw, no final volume of 50 μL) in one of the back paws, fourteen days after sensitization. The counter-lateral paw received an injection with the same volume of the vehicle (solution saline). The edema was analyzes in a digital plethysmograph, through the displacement of fluid (0.5 g NaCl; 3 mL Extran 100%/1 L) produced by the insertion of the paw in test in the measurement tray. Each analysis was performed 3 times. […]
For evaluation of the anti-allergenic activity of the oil of Carapa guianensis, the dosages of 200 and 400 mg/Kg were tested for mice and 150 and 300 mg/Kg for rats, depending on the model tested. […] The results were expressed as mean and pattern error of the mean and (AND.P.M.), and statistically analyzed through the analysis of the variance (ANOVA), followed by test of multiple comparisons of Newman-Kewls, or T of Student test with a level of significance minor or equal to 0.05 (p≦0.05).

[7] = test system: pleural exudation induced by histamine; assay: pleurisy induced by histamine, pleural exudation (Evans blue); assay type: in vivo, Swiss mice; settings: promethazine 30 mg/Kg p.o.; histamine 100 μg/cavity
Description: The pleurisy was induced through intra-thoracic injection (i.t) of histamine (100 μg/cavity) at the final volume of 100 μL. The control group received 100 μL of vehicle (sterile saline). One hour after the stimulus, the animals were sacrificed in a chamber CO2, their thoracic cavities were exposed and washed with phosphate tampon (PBS) heparinized (20 UI/mL). The pleural cavity of the animals was washed with the help of an automatic pipette, with volumes of 1 and 3 mL for mice and rats, respectively. The pleural wash was collected and centrifuged (740 g, 10 minutes) to remove the cells for posterior evaluation of the proteic exudation, as described as follows. In experiences made with mice, they were previously intravenously injected with Evans blue 1% (25 mg/Kg), at the orbital plexus and the proteic exudation was evaluated through overflow of Evans blue, through spectrophotometer at λ 600 nm. The concentration of Evans blue was determined comparing the optical density (D.O.) of washes with a pattern curve of Evans blue (of 25.6 a 0.2 μg/mL). Results were expressed as μg/mL of Evans blue. For analysis in rats, the exudation of pleural wash was evaluated by the measure of the volume collected from the cavity with the help of a graded syringe and the overflow of proteins was evaluated by the quantification of proteins at the supernatant by the method of Lowry (Lowry et al., 1951). […]

[8] = test system: edema of paw induced by histamine; assay: edema of paw induced by histamine, oral pre-treatment; assay type: in vivo, Swiss mice; settings: mice; promethazine 30 mg/Kg p.o.
Description: The animals were stimulated through interplant injection of stimulus (histamine, bradikinin and PAF—platelet-activating factor) in one of the rear paws with volumes of 50 or 100 μL/paw for mice or rats, respectively. The dosages used were: 100 μg/paw of histamine, 10 nmol/paw of bradykinin and 1 μg/paw of PAF (we notice that only bradykinin was injected in a volume of 50 μL). On the counter-lateral side of the paw the same volume of the vehicle (saline sterile free of pyrogen). Thirty minutes or one hour after the stimulus, the edema was analyzed at the digital plethysmograph, through of displacement of fluid (0.5 g NaCl; 3 mL Extran 100%/1 L) produced by the insertion of each paw in the measurement tray. Each analysis was performed 3 times.
(§3) The treatments with oil or tetranortriterpenoids were performed orally (p.o) 1 hour before the stimulation in conscious animals, kept in a previous fasting of 12 hours with free access to water. The treatment solutions were administered with the help of a curve needle with spherical end, with volumes of 200 μL or 400 μL for mice (of 25 g) or rats (of 200 g). The doses used were 200 or 400 mg/Kg for mice and 150 or 300 mg/Kg for rats. The tetranortriterpenoids were administered in doses of 12.5; 25; 50; 100 and 200 mg/Kg. […]

[9] = test system: ear edema induced by histamine; assay: edema of ear induced by histamine (Evans blue); assay type: in vivo, mice; settings: promethazine 10 mg/Kg p.o.; 30 minutes
Description: The ear edema was induced in anesthetized mice (pentobarbital 40 mg/kg, via intravenous, i.v.) with an intravenous injection (i.v.) in the orbital plexus of Evans blue 1% (25 mg/Kg), 24 hours before the stimulus. […] Thirty minutes after the stimulus, the animals were sacrificed in the chamber of CO2, and their ears were removed and placed in formamide (500 μL/ear) for 24 hours for the extraction of Evans blue. The concentration of Evans blue in the supernatant was analyzed through spectrophotometer (SpectraMax®) at λ 600 nm. The concentration of Evans blue is determined comparing the optical density é (D.O.) of a pattern curve (from 25.6 to 0.2 μg/mL).
as §3

[10] = test system: hyperalgesia induced by histamine; assay: hyperalgesia induced by histamine (hot plate); assay type: in vivo, Wistar rats; settings: promethazine 30 mg/Kg p.o.
Description: as §2
The induction of a hyperalgesic state was performed through intraplant injection of 100 μg/paw of histamine in Wistar rats in one of the rear paws, at the final volume of 100 μL/paw. In the counter-lateral paw the same volume of vehicle (sterile saline free of pyrogens) was injected. The stimulus was performed in animals non-treated and in animals pre-treated with promethazine (30 mg/Kg, p.o.). Thirty minutes after the stimulus, the animals were placed in a hot plate at 52.5±0.5° C., and two chronometers are set to record the latency of response of withdrawal of each rear paw. Results were expressed in terms of variation of latency of withdrawal of left and right side paws, measured in seconds.
The induction of a hyperalgesic state was performed through intraplant injection of 100 μg/paw of histamine in Wistar rats in one of the rear paws, at a final volume of 100 μL/paw. […] Results were expressed in terms of variation of latency of withdrawal of left and right side paws, measured in seconds.

[11] = test system: edema of paw induced by bradykinin; assay: edema of paw induced by bradykinin; assay type: in vivo, Wistar rats; settings: HOE 140 10 nmol/paw intraplant
Description: Wistar rats were stimulated through intraplant injection of 10 nmol/paw of bradykinin (BK) in one of the rear paws at the volume of 50 μL/paw (Henriques, 1991). In the counter-lateral paw was injected the same volume of vehicle (sterile saline free of pyrogens). The stimulus was performed in non-treated animals and in animals pre-treated through of an intraplant injection of 10 nmol/paw of antagonist to bradykinin HOE 140 at the volume of 50 μL. Thirty minutes after the stimulus, the edema was analyzed on the digital plethysmograph, through the displacement of fluid (0.5 g NaCl; 3 mL Extran 100%/1 L) produced by insertion of each paw in the measurement tray. Each analysis was performed 3 times.

Cc1nnc2n1-c1sc3c(c1C(c1ccccc1Cl)=NC2)CC(C(=O)N1CCOCC1)C3 (centres unmarked) [WEB 2170]
edema of paw induced by PAF [1]: inhibition of edema

O=C([O-])Cc1ccccc1Nc1c(Cl)cccc1Cl.[K+] [diclophenac, diclophenac of potassium]
proteic overflow induced by carrageenin in pleural cavity [2]: able to significantly inhibit the proteic overflow induced by carrageenin | edema of paw induced by zimosan [3]: inhibition | edema of paw induced by carrageenin [4]: inhibition

Cc1c(N(C)CS(=O)(=O)[O-])c(=O)n(-c2ccccc2)n1C.[Na+] [dipyrone]
hyperalgesia induced by carrageenin [5]: inhibition of hyperalgesia

CC(CN1c2ccccc2Sc2ccccc21)N(C)C (centres unmarked) [promethazine]
allergic edema of paw induced by egg albumin [6]: significantly inhibited; also recorded: inhibition of edema | proteic overflow in pleurisis induced by histamine [7]: able to significantly inhibit the proteic overflow induced by histamine | edema of paw induced by histamine [8]: inhibited | ear edema induced by histamine [9]: able to significantly inhibit the edema induced by histamine | hyperalgesia induced by histamine [10]: inhibition of hyperalgesia

HOE 140
edema of paw induced by bradykinin [11]: inhibition of edema
